The record followed here is US12201592B2, “Combinations of IRS/STAT3 dual modulators and anti-cancer agents for treating cancer” (TYRNOVO LTD., priority 2015, dated 2025).

Experiment [1] relates to Uteral AdenoSarcoma biopsy. The experiment is described as follows: PDX efficacy study with Afinitor, repeat (Example 5A). It is filed as in vivo, NodScid mice. Here is the method: The experiment described in Example 4 was repeated in purchased mice from Harlan.
• 1. […] Afinitor 5 mg/kg PO, 4 times a week (17 mice). • 4.

The test system of experiment [2] is Uteral AdenoSarcoma biopsy. The experiment is described as follows: PDX efficacy study with Afinitor (Examples 4 and 5).
Description: Treatments and Procedures
Treatment groups included: • 1. Control: 20% HPbCD 50 ul IP, qod (6 mice). • 2. […] Afinitor 5 mg/kg PO, qod (15 mice). • 4. Afinitor 5 mg/kg PO (qod)+Compound D 70 mg/kg IV (qod), 6 mice. Afinitor was administered ˜4 hr following Compound D.
All treatments were initiated simultaneously on day0.
The length (l) and the width (w) of the tumors were measured every other day and the volumes of the tumors were calculated as follows: v=lw^2/2.
Following treatments described in phase I (example 4), the mice whose tumors reached the end point were sacrificed, and the following treatments were continued.
• 1. The Afinitor-responder group (group A, open squares) was administered with Afinitor 5 mg/kg PO, qd (8 mice). • 2. The combined treatment group (open circles) continued to get the Afinitor 5 mg/kg PO (qod)+Compound D 70 mg/kg IV (qod) treatment (6 mice). Afinitor was administered ˜4 hr following Compound D. Phase III:
The group was divided to two groups of 4 mice each which received the following treatments on day6 onwards: • The first continued to get Afinitor 5 mg/kg PO, qd (4 mice) • and the second got Afinitor 5 mg/kg PO (qod)+Compound D 70 mg/kg IV (qod) combined treatment (4 mice). Afinitor was administered ˜4 hr following Compound D.
The subject of experiment [3] is phospho-Y705 Stat3 (pSTAT3) in melanoma A375 cells. Briefly: Immunoblot of Stat3 Y705-phosphorylation in intact cells. The following applies: for pIC50: Homo sapiens, A-375; for inhibition of Stat3 Y705-phosphorylation: 3 μM, 24 hr post treatment (FIG. 6E). The experiment is classed as cell-based, human. As for the experimental part:
FIGS. 6A-6E. […] A. Human melanoma A375 cells were treated with the indicated concentrations of compounds A or D for 1.3 and 4.5 hr. Cells were lysed and immunoblotted with antibodies against phospho-Y705 Stat3 (pSTAT3) and Stat3. […] B. Cells were treated with 2 μM Compound A and lysed following the indicated times. C. A375 cells were treated with compound D for 4 hr, then washed with medium several times and lysed after 4, 24 and 48 hr of incubation without inhibitors.
(§1) • Cells were treated as indicated in FIGS. 6-9 and the corresponding figure legends, following overnight serum-starvation (unless indicated differently). When cells were treated with both PLX4032 and compounds A or D, PLX4032 was added 3-4 hr following the compounds. • Cells were lysed with boiling sample buffer (10% glycerol, 50 mmol/L Tris-HCl, pH 6.8, 3% SDS, and 5% 2-mercaptoethanol). Western blot analysis was conducted in 8% SDS-PAGE, using antibodies described below. • Aliquots of cell extracts containing equal amounts of protein were resolved by 8% SDS/PAGE and electroblotted onto nitrocellulose filters. The membranes were blocked with low-fat milk diluted 1:20 in TBST (NaCl/Tris containing 0.2% Tween-20) for 0.5 hr, incubated with Rabbit anti-phosphoY705-Stat3 antibody (Cell signaling cat #9131), Mouse anti-ERK-diphosphorylated-YT (Sigma Aldrich cat #M8159) or anti-PARP antibodies overnight at 4 C in 5% BSA in TBST containing 0.05% azid, washed extensively with TBST and then incubated with horseradish peroxidase-conjugated secondary antibodies for 45 min at room temperature in 5% BSA in TB ST. • Immunoreactive bands were visualized using enhanced chemiluminescence. Membranes were re-blotted with Mouse anti-Stat3 antibody (Transduction labs cat #21320) or with Rabbit anti AKT1/2 (Santa cruz cat #sc-8312) or Anti-Actin as described above. IV. Chemotaxis of Peripheral Blood Mononuclear Cells (PBMCs)

Another experiment relates to PBMCs. Briefly: Chemotaxis of PBMCs towards medium of treated A375 cells. The experiment is classed as cell-based, human. The following applies: medium taken 30 hrs after treatment; read 24 hrs later (FIG. 9A).
For the next experiment, the system named is HepG2. The experiment is described as follows: Cell proliferation and viability, methylene-blue staining. It is filed as cell-based. The following applies: Homo sapiens, 72 h; HepG2, hepatocarcinoma; 3 days exposure. As for the experimental part: (§2) Cells were grown in complete medium and treated with inhibitors one day following seeding. 72 hours later, the surviving cells were quantified by methylene blue staining or by WST-1 staining for nonadherent cells (Roche).
(§3) Cells were plated in 96-well plates in 5-10% FCS in medium; a day later exposed to various concentrations of compound A, compound D or OSI-906 and 3 days later stained with methylene-blue and the relative cell number was quantified.

The test system of the next experiment is PC3. The experiment is described as above. The experiment is classed as cell-based. The settings on record: Homo sapiens, PC-3, 72 h; PC3, prostate cancer; 3 days exposure. Here is the method:
as §2, §3

The subject of a further experiment is MM1S. The experiment is described as follows: Cell proliferation and viability. The settings on record: Homo sapiens, MM1.S, 72 h, multiple myeloma, 3 days exposure. It is filed as cell-based. As for the experimental part: as §2, §3
For a further experiment, the system named is 451Lu-BR. Briefly: Cell proliferation and viability, methylene-blue staining. The experiment is classed as cell-based. The following applies: Homo sapiens, 72 h, melanoma, 3 days exposure. Here is the method: (§4) All cell lines were obtained from the American Type Culture Collection. YUMAC, YURIF, YUSIK (all human melanoma, kindly provided by Prof. Ruth Halaban, Yale University, New Haven, Conn.) were cultured in OptiMEM containing 5% FCS. M571, M2068, M560n (all human melanoma, kindly provided by Dr. Michal Lotem, Hadassah Hospital, Jerusalem, Israel) were maintained in RPMI, DMEM and F12 (1:3:1) containing 10% FCS. 451-Lu (human melanoma) and 451-Lu-BR (PLX4032-resistant melanoma; ref. 32) were maintained in RPMI containing 5% FCS (media for resistant lines contained […] PLX4032). All media were supplemented with 100 U/mL penicillin and […] and all cells were grown at 37° C./5% CO2.
(§5) All melanoma cells used and discussed in FIGS. 6-9 and table 1 are from human origin and bearing the mutated BRAF^600K/E.
as §2, §3

In experiment [4] the test system is pStat3 in 451-LU-BR, Mel1617-BR and patient cells M2068, M571. Briefly: Immunoblot of pStat3 in BRAFi-resistant melanoma cells. It is filed as cell-based, human. The following applies: 451-LU-BR, Mel1617-BR, patient cells M2068 and M571 (FIG. 8A-C). Here is the method:
FIGS. 8A-8D. […] FIG. 8C. […] FIG. 8D. Cells of various cancer types were treated with compound D for 4 hr in serum-free medium, and 20 hr in medium with or without 10% serum. Asterisks indicate 10 μM concentration for RPMI8226 and HepG2 cells.
as §1
(In general: Immunoblotting shows a protein as a band on a membrane.)

Experiment [5] has as its system pStat3 in A375, 451-Lu, Mel1617 cells. The experiment is described as follows: Immunoblot of basal and PLX4032-induced pStat3 in PLX4032-sensitive melanoma cells. It is filed as cell-based, human. The settings on record: PLX4032 1 μM added 3-4 hr after the compounds (FIG. 7C-E, 8A). Here is the method:
FIGS. 7A-7E. […] FIG. 7A. […] FIG. 7B. […] Cells from patients were grown in complete medium and immunoblotted as described above. […] Compounds A/D block the basal and the PLX4032-induced pStat3. Treatment of PLX4032-sensitive human melanoma A375 (C), 451-Lu (D) or Mel1617 (E) cells with 1 μM PLX4032 for 18-24 hr induces a dramatic increase in pStat3. Compounds A (FIG. 7C, D) or D (FIG. 7E) block both the basal and the PLX4032-induced pStat3. OSI-906, an ATP-competitive inhibitor of IGF1R, has no effect on pStat3.
as §1

The subject of a further experiment is Mel1617-Pa. Briefly: Cell proliferation and viability, methylene-blue staining. The settings on record: Homo sapiens, 72 h, melanoma, 3 days exposure. It is filed as cell-based. As for the experimental part: as §5, §2, §3
Another experiment relates to Mel1617-BR. Described as above. The experiment is classed as cell-based. The settings on record: Homo sapiens, 72 h, melanoma, 3 days exposure. Here is the method:
as §5, §2, §3

Experiment [6] has as its system Squamous Cell carcinoma of Head&Neck (SCCHN) tumor biopsy. Briefly: PDX efficacy study, acquired resistance to Erlotinib (Example 1). The following applies: start ~80 mm^3.
Experiment [7] has the same test system. Briefly: PDX efficacy study, Erlotinib-resistant tumors (Example 2). It is filed as in vivo, NodScid mice.
Experiment [8] concerns Squamous Cell carcinoma of SCCHN tumor biopsy. The following applies: start 700-720 mm^3.
Description: Experimental system: Patient-derived xenograft (PDX) of Squamous Cell carcinoma of SCCHN tumor biopsy subcutaneous implanted into NRG mice.
• Implantation of SCCHN tumor biopsy graft (P11) into NRG mice for efficacy study: Eight months following implantation of SCCHN tumor biopsy graft (P1) described above, tumor cells (P11) were injected into 20 male mice NOD.Cg-Rag1tm1Mom Il2rgtm1Wj1/SzJ mice (Common name: NRG), from self-breeding, using the same procedure described for implantation of P1. […] All treatments initiated simultaneously on day 0.
Treatment groups included: • 1. Vehicle-control: 20% HPbCD 50 μl/injection, IV (3 times/week, qod), 4 mice. • 2. […] Erlotinib 100 mg/kg in HPbCD, PO (5 times/week), 5 mice. • 4.
The length (l) and the width (w) of the tumors were measured 4 times a week and the volumes of the tumors were calculated as follows: v=lw^2/2. […] Mice weight and behavior were examined routinely.
The subject of a further experiment is 451Lu-Pa. Briefly: Cell proliferation and viability, methylene-blue staining. It is filed as cell-based. The following applies: Homo sapiens, 72 h, melanoma, 3 days exposure. Here is the method:
as §4, §5, §2, §3

For another experiment, the system named is HCT15. The experiment is described as above. The experiment is classed as cell-based. The following applies: Homo sapiens, HCT-15, 72 h; HCT15, colon cancer; 3 days exposure. Here is the method:
Cells were grown in complete medium and treated with inhibitors one day following seeding. 72 hours later, the surviving cells were quantified by methylene blue staining or by WST-1 staining for nonadherent cells (Roche). Cells were plated in 96-well plates in 5-10% FCS in medium; a day later exposed to various concentrations of compound A, compound D or OSI-906 and 3 days later stained with methylene-blue and the relative cell number was quantified.

Where [9] appears, read: FIG. 6D, read-out: IC50 of dose-dependent inhibition of pStat3.

pIC50: −log10 of the molar value. Like-named read-outs stand apart in the source and are kept apart here. A value given as a limit tells only on which side of the number the result lay.

Description for PBMCs: A375 cells were treated with the indicated concentrations of Compound A and washed twice with the medium 4 hrs after treatment where indicated (Wash). […] 10,000 PBMCs/well were added to the upper plate.
A375 cells were seeded in 96-well plates (6000 cells/well) and grown overnight. Cells were treated with Compound A and washed twice with the medium 4 hrs after treatment where indicated (Wash). […] 10,000 PBMCs/75 ul medium/well were added to the upper plate. […] Chemotaxis was examined 24 hrs later by Cell Titer Glo analysis of the lower plate.
Thus, it was tested whether treatment of tumor cells with IRS/Stat3 dual modulators may induce the recruitment of peripheral blood mononuclear cells towards the cancer cells. Human melanoma A375 cells were treated with increasing concentrations of compound A and washed twice with the medium 4 hrs post-treatment where indicated (Wash).

As for `CO[C@H]1C[C@@H]2CC[C@@H](C)[C@@](O)(O2)C(=O)C(=O)N2CCCC[C@H]2C(=O)O[C@H]([C@H](C)C[C@@H]2CC[C@@H](OCCO)[C@H](OC)C2)CC(=O)[C@H](C)/C=C(\C)[C@@H](O)[C@@H](OC)C(=O)[C@H](C)C[C@H](C)/C=C/C=C/C=C/1C` [Afinitor, Everolimus], the responder mice in experiment [1] (Afinitor 5 mg/kg PO, 4 times a week) is recorded as 14 out of 17; in [2] (phase I) it was “half of the group responded”. Further, the “acquired resistance while on treatment” value in experiment [1] (after one week of treatment) was “acquired resistance to Afinitor and aggressively progressed”. The “average tumor size on day6” value in [2] (Afinitor-responder group A (n=8)) is 590 mm^3. Moreover, the “average tumor size on day5” value in experiment [2] (Afinitor-responder group A (n=8), 125 mm^3 on day0) is 37 mm^3. In addition, the “increase of average tumor size” value in experiment [2] (four days, start 130 mm^3, control 16-fold) was 5.5 fold. The “response of Afinitor-resistant tumors (phase III)” value in experiment [2] (group A tumors, treatment from day 6 (FIG. 5B)) is listed as “tumors significantly progressed”. The “effect on tumor growth” value in [2] (phase I, four days, Afinitor 5 mg/kg PO, Compound D 70 mg/kg IV) is recorded as “growth inhibition of the tumors”. The “tumor course while on treatment (phase II)” value in [2] (treatment from day0 (FIG. 5A)) is “all tumors developed resistance to Afinitor and aggressively progressed”.
Usually pIC50 stands for −log10 of the IC50, conventionally taken in molar units. In the case of `N#C/C(=C\c1cc(O)c(O)c(I)c1)C(=S)NCc1cc(O)c(O)c(O)c1` [B], the negative logarithm of the IC50 (pIC50) in experiment [3] (setting [9]) is 6.00.
The same measure, in the same setting: with `Oc1cc(CNC(=S)/C=C/c2cc(O)c(O)c(I)c2)cc(O)c1O` [C] the figure was over 6.00.
With `Oc1cc(CNC(=S)/C=C/c2cc(O)c(O)c(Br)c2)cc(O)c1O` [Compound A], in the experiment with PBMCs, the “chemotaxis of PBMCs towards medium of treated A375 cells” value is “dose dependent chemotaxis was detected”. Further, the pIC50 with HepG2 was 6.00; with PC3 it was 6.10; in the experiment on MM1S, 6.52; with 451Lu-BR, about 6.15; with Mel1617-Pa it was 6.52; in the experiment with Mel1617-BR it was 6.52. For the same molecule, the pIC50 was about 5.70 in [3] (A375 cells, 1.3 hr post-treatment (FIG. 6A), read-out: IC50 of inhibition of Stat3 phosphorylation (pStat3)); over 6.00 in experiment [3] (A375 cells, 3 hr later (4.5 hr treatment, FIG. 6A), read-out: IC50 of inhibition of Stat3 phosphorylation (pStat3)); over 6.00 in experiment [3] (setting [9]). Besides, the “effect on Stat3 phosphorylation in PLX4032-resistant melanoma cells” value in [4] was “block Stat3 phosphorylation completely”. In addition, the “effect on basal and PLX4032-induced pStat3 levels” value in experiment [5] was “block both the basal and the PLX4032-induced levels of pStat3”.
Consider `C#Cc1cccc(Nc2ncnc3cc(OCCOC)c(OCCOC)cc23)c1` [Erlotinib], for which the “tumor response (tumor volume)” value in experiment [6] (Erlotinib 100 mg/kg PO, Compound D 70 mg/kg IV, two weeks) is “significant tumor regression in all the treated mice”; in experiment [8] it was “their growth was halted and they regressed”. The “acquired resistance / regrowth while on treatment” value is “all the tumors developed resistance to Erlotinib and progressed aggressively” in experiment [6] (two weeks of treatment); “tumors developed resistance to Erlotinib after 1 week and aggressively progressed” in experiment [7] (treatment from day 0, tumors ~70 mm^3); “tumors developed resistance to Erlotinib a week following treatment initiation and aggressively progressed” in experiment [8]. Besides, in experiment [7] (Erlotinib 100 mg/kg PO, 14 out of 18 mice), the “treated mice with tumor regression” value is 78%. In experiment [7] (tumors ~130 mm^3 on day 10, treatment from day 10), the “response of Erlotinib-resistant tumors, late treatment” value is reported as “aggressively developed”.
With `N#C/C(=C\c1cc(O)c(O)c(Br)c1)C(=S)NCc1cc(O)c(O)c(O)c1` [F], in experiment [3] (setting [9]), the pIC50 is 5.70.
Take `N#C/C(=C\c1cc(O)c(O)c(I)c1)c1ncc2cc(O)c(=O)c(O)c-2s1` [IV-1]: in [3] (A375 cells), the “inhibition of Stat3 Y705-phosphorylation” value is on record as “Complete inhibition”.
On the same count and under the same terms, under `O=c1c(O)cc2cnc(/C=C/c3cc(O)c(O)c(Br)c3)sc-2c1O` [IV-2] stands “Complete inhibition”; under `O=c1c(O)cc2cnc(/C=C/c3cc(O)c(O)c(I)c3)sc-2c1O` [IV-3], “Complete inhibition”; under `O=c1c(O)cc2cnc(/C=C/c3ccc(O)c(O)c3Br)sc-2c1O` [IV-4], “Complete inhibition”.
Take `C[C@]1(O)C[C@@H](c2nc(-c3ccc4ccc(-c5ccccc5)nc4c3)c3c(N)nccn32)C1` [OSI-906, reference compound]: the pIC50 with HepG2 was 5.08; in the experiment with PC3, under 5.00; in the experiment on MM1S, 6.70; with 451Lu-Pa it was under 5.52; with 451Lu-BR it was under 5.52; in the experiment on Mel1617-Pa, under 5.52. Besides, the negative logarithm of the IC50 (pIC50) with Mel1617-BR and in the experiment on HCT15 was under 5.52 each time. Moreover, the “effect on basal and PLX4032-induced pStat3 levels” value in experiment [5] was “had no effect on pStat3 levels”.
